Laboratory results: article PMC10861593, “Kisspeptin-10 binding to Gpr54 in osteoclasts prevents bone loss by activating Dusp18-mediated dephosphorylation of Src” (Nature Communications, 2024)
Entries after “also recorded” stand apart in the source; their conditions may differ. Where no end group is shown, it is not given here. [ ]: non-standard residue; d: D form. azaGly = NNC(=O)O

What was measured:
[1] = cited from earlier work
Excerpt: (§1) Bone targeting Kp-10 ([…] D-Tyr–Asn-(D-Trp)-Asn-Ser-Phe-(azaGly)-Leu-Arg (Me)-Phe-NH2) was designed using six repetitive sequences of aspartate, serine, and serine, which is a bone surface-targeting delivery system as previously described.

GPR54 = system: GPR54; parameters: method as in PMID 22975302; settings: cited from earlier work
Excerpt: as §1

FSH and LH = assay: Elisa of serum FSH and LH; type: in vivo, mouse; settings: 10 nmol/kg twice per week for two months, versus vehicle; n = 6 per group
Excerpt: Supplementary Fig. 16 a Representative image of Von Kossa staining of sham-operated female C57 mice treated with vehicle (Sham, n=4), ovariectomized mice (OVX, n=3), and OVX mice treatment with 1 nmol/kg Kp-10 (n=6),10 nmol/kg Kp-10 (n=6),1 nmol/kg (DSS)*6-Kp-10 (n=5) or 10 nmol/kg (DSS)*6-Kp-10 (n=6) twice one week by intraperitoneal injection for two months. […] BV/TV, bone volume as a fraction of total bone volume; Tb. Th, trabecular thickness; Tb. Sp, trabecular separation; Tb. N, trabecular number. c Elisa assay showing LH, FSH derived from the serum of sham-operated female C57 mice treated with vehicle (Sham+ vehicle) or 10 nmol/kg (DSS)*6-Kp-10 (Sham+10 nmol/kg Kp-10), ovariectomized mice treated with vehicle (OVX+ vehicle) or 10 nmol/kg (DSS)*6-Kp-10 (OVX+ 10 nmol/kg Kp-10) twice one week by intraperitoneal injection for two months. n=6 per group. Error bars are ± SEM. P-values were determined by two-way ANOVA analysis (b, c) ***P <0.001, ****P <0.0001. “ns” means no significant difference. Representative results were observed from at least three independent experiments. Source data are provided as a Source Data file.

Dusp18 knockout mice = assay: bone and osteoclast parameters in Dusp18 knockout mice; type: in vivo, mouse; settings: femur
Excerpt: Data represent means ± SEM. […] Representative results were obtained from at least three independent experiments. Source data are provided as a Source Data file.

OVX mice = assay: OVX-induced bone loss model (and sham-operated mice); type: in vivo, mouse
Excerpt: Fig. 7 Kp-10 ameliorated OVX-induced bone loss. a, c Representative micro-CT images of femoral trabecular bone (a) and cortical bone (c). Female C57 mice treated with vehicle (Sham) or 50 nmol/kg (DSS)*6-Kp-10, ovariectomized mice (OVX) treated with vehicle or 50nmol/kg (DSS)*6-Kp-10 twice one week by intraperitoneal injection (n = 6 per group). Scale bar, 500 µm. b, d Parameter analysis of femurs from the mice above. BMD bone mineral density, BV/TV bone volume as a fraction of total bone volume, Tb.Th trabecular thickness, Tb.N trabecular number, Tb.Sp trabecular separation. e Representative TRAP staining images of femurs from Fig. 7a. f Histomorphometry analysis of the femurs from Fig. 7a. Oc.S/BS osteoclast surface per bone surface, N.Oc/B.Pm osteoclast bone surface density, ES/BS eroded surface per bone surface. Data represent means ± SEM. P values were determined by one-way ANOVA analysis (b, d, f). Representative results were obtained from at least three independent experiments. Source data are provided as a Source Data file.
3D micro-CT analyses were performed as previously described. We scanned the femur using in vitro X-ray microtomography (Skyscan 1272, Bruker micro CT) at a pixel size of 9 µm, and analyzed the results according to the manufacturer’s instructions. Region-of-interest (ROI) was defined from 10 to 110 image slices, where the growth plate slice was defined as 0 mm. The contrast was defined from 68–255; 3D analysis, BMD, and 3D models were analyzed using CTAn software (Bruker micro CT). 3D models were adjusted in CT Vox software (Bruker micro CT).
Bone tissue was removed of excess tissues and fixed with 4% formalin, decalcified with 0.5 M EDTA for 10–14 days, embedded with paraffin, sectioned, and stained using the TRAP staining kit (Sigma-Aldrich, 387A-1KT). The third lumbar spine vertebrae (L3) were fixed with 4% formalin, sectioned, and subjected to Von Kossa staining as described previously[60],[61]. For double calcian labeling assay, 4−5 week-old mice were administrated calcian (30 μg/mL) through intraperitoneal injection for the first time and the second time after 10 days. The third lumbar spine vertebrae (L3) were fixed with 4% formalin, sectioned, and subjected to Goldner’s Masson trichrome staining, or acquisition of fluorescence images. Histomorphometric measurements were made using the OsteoMeasure Analysis System (Osteometrics, Atlanta, GA, USA) according to standard criteria.
For animal studies in vivo, mice were randomized for weight. For the OVX-induced bone loss model, 2-month-old female C57BL/6 mice were sham-operated (sham) or ovariectomized (OVX) and randomly divided into indicated groups. Vehicle, Kp-10 or (DSS)*6-Kp-10 was injected into the tail vein twice per week. After two months of treatment, the femurs and the L3 lumbrae were isolated for micro-CT or histomorphometric analysis. 3D micro-CT analyses were performed according to a standard protocol. BMD and bone volume were analyzed by CT-analysis software (CTAn, Bruker micro CT, Kontich, Belgium) and images were reconstituted by CT-volume software (CTvol, skyscan, CTAn, Bruker micro CT, Kontich, Belgium).
Supplementary Fig. 16 a Representative image of Von Kossa staining of sham-operated female C57 mice treated with vehicle (Sham, n=4), ovariectomized mice (OVX, n=3), and OVX mice treatment with 1 nmol/kg Kp-10 (n=6),10 nmol/kg Kp-10 (n=6),1 nmol/kg (DSS)*6-Kp-10 (n=5) or 10 nmol/kg (DSS)*6-Kp-10 (n=6) twice one week by intraperitoneal injection for two months. […]

Src (Y416) = assay: in vitro phosphatase activity assay with Src; type: biochemical, human; settings: purified proteins; 30 min at 30 °C; Western blot
Protocol: The C terminus of human GPR54 (H329- L398) and mouse Gpr54 (R331- L396) cDNAs were subcloned into a pGEX-4T2 vector. For purification of full-length WT human DUSP18 and DUSP18 (C104S) proteins, DUSP18 was cloned into pMCSG7 vector. For purification of Src (G85-L536) protein, cDNAs of human Src were subcloned into pFastBac HT B vector with an N-terminal 6xHis tag and expressed in Sf9 cells (Expression Systems) using the Bac-to-Bac Baculovirus Expression System (Invitrogen) for 48 h. For purification of the Src (G85-V247)-GPR54 (333–356 with C338S, C340S mutation) recombinant fusion protein, the C-terminus of GPR54 (333–356 with C338S and C340S mutation) was linked to the C terminus of Src SH3-SH2 domain (G85-V247), which was subcloned into the pMCSG7 vector.
For the total phosphatase activity assay, the Co-IP experiment was carried out after Kp-10 treatment of RAW264.7 cells for 20 min, followed by lysis and incubation with the Gpr54 antibody. The assay was performed according to the phosphatase assay kit (Sigma-Aldrich,17-313). For the DUSP18 phosphatase activity assay, His-DUSP18 and His-DUSP18 (C104S) were purified from E Coli, and His-Src was purified from Sf9 insect cells. His-DUSP18 and His-DUSP18 (C104S) were incubated with His-Src in 1x phosphatase buffer (20 mM HEPES, 20 mM MgCl2, 0.03% β-mercaptoethanol)[51] for 30 min at 30 °C with gentle shaking. […]

GPR54 CT [2] = assay: competitive pull-down assay, His-SRC and His-DUSP18 with GST-GPR54 CT; type: binding, human; settings: His-SRC 0 or 0.1 μg, His-DUSP18 0, 0.1 or 0.2 μg
Protocol: Beads were analyzed by phosphatase activity assay (a), mass spectrometry assay (b), IB analysis (c) and quantification of protein levels (d). e, f Protein co-localization was analyzed by IF staining in primary pre-osteoclast with 10 nM Kp-10 treatment for 20 min. […] Scale bar, 50 µm. g, h binding affinity was measured by SPR binding analysis. […] Data represent means ± SEM. P values were determined by one-way ANOVA analysis (a, d, j, l) or two-tailed Student’s t-test (f). Representative results were obtained from at least three independent experiments. Source data are provided as a Source Data file.

GPR54 CT [3] = assay: GST pull-down / Co-IP of GPR54 CT with DUSP18, PTPN6 and PPP1CA; type: binding, human; settings: 293T WCL, DUSP18-Flag, PPP1CA-Flag or PTPN6-Flag
Protocol: Supplementary Fig. 3 a, b SPR binding analysis showing the binding affinity of Src and human GPR54^336-356 peptide (a), Src and human GPR54 ^333-344 peptide (b). c, d Anti-Flag IP derived from 293T cells transfected with HA-Src and GPR54-Flag constructs with Kp-10 (10 nM) stimulation (c) and quantification of protein levels (d). e. e IF staining was carried out using pre-osteoclasts differentiated from BMMs in the presence of M-CSF (10 ng/ml) and RANKL (50 ng/ml) for 2 days. Representative images were shown by TIRF microscopy. f, g IB analysis of total samples and GST pull-downs using GST proteins including GST, GST-GPR54 CT incubated separately with WCL of 293T cells transfected with DUSP18-flag, PPP1CA-Flag or PTPN6-Flag (f), and quantification of protein levels (g). Error bars are ± SEM. P-values were determined by two-tailed Student’s t-test (d) or one-way ANOVA analysis (g). *P <0.05, Representative results were observed from at least three independent experiments. Source data are provided as a Source Data file.

D-Tyr–Asn-(D-Trp)-Asn-Ser-Phe-(azaGly)-Leu-Arg (Me)-Phe-NH2 [Modified Kp-10, Modified Kp-10 designed as previously described]
metabolic stability [1]: high metabolic stability | GPR54 agonistic activity (GPR54): excellent GPR54 agonistic activity

DSSDSSDSSDSSDSSDSS[dY]N[dW]NSF[azaGly]LR(Me)F-NH2 [(DSS)*6-Kp-10]
serum FSH and LH, sham and OVX mice (FSH and LH): same level of FSH and LH | rescue of Dusp18 deletion induced osteoclast activity (Dusp18 knockout mice; TRAP staining and osteoclast parameters): not by (DSS)*6-KP-10 | rescue of Dusp18 deletion induced bone mass change (Dusp18 knockout mice; micro-CT and bone parameters, n = 5): not by (DSS)*6-KP-10 | bone mass, 50 nmol/kg, sham and OVX mice (OVX mice; 50 nmol/kg twice per week, micro-CT, femur, n = 6 per group): bone mass increased | osteoclast activation, 50 nmol/kg, sham and OVX mice (OVX mice; 50 nmol/kg twice per week, TRAP staining, Oc.S/BS, N.Oc/B.Pm, ES/BS, n = 6 per group): suppressed osteoclast activation both in sham-operated and OVX mice | bone protective effect versus Kp-10 (OVX mice; OVX mice, 1 or 10 nmol/kg twice per week for two months, Von Kossa staining, trabecular bone parameters): rescued OVX induced bone loss more effectively than Kp-10; also recorded: showed better bone protective effect; also recorded: showed better effects than Kp-10 on bone protection | bone loss / bone protection in vivo (summary statement) (OVX mice; in vivo, OVX-induced bone loss model): showed bone protection in the OVX-induced bone loss model by inhibiting osteoclast activity; also recorded: protects against bone loss

B1: DUSP18: full-length WT human DUSP18 (protein, UniProt Q8NEJ0 1-188, looked up)
chain: MTAPSCAFPVQFRQPSVSGLSQITKSLYISNGVAANNKLMLSSNQITMVINVSVEVVNTLYEDIQYMQVPVADSPNSRLCDFFDPIADHIHSVEMKQGRTLLHCAAGVSRSAALCLAYLMKYHAMSLLDAHTWTKSCRPIIRPNSGFWEQLIHYEFQLFGKNTVHMVSSPVGMIPDIYEKEVRLMIPL
modifications: full-length His tag
dephosphorylation of Src (Y416) (Src (Y416)): potently reduced the phosphorylation of Src (Y416) | competition with Src for binding to GPR54 CT (GPR54 CT [2]): competed with Src for binding to GPR54 CT | interaction with GPR54 among DUSP18, PTPN6 and PPP1CA (GPR54 CT [3]): had the strongest interaction with GPR54
